Data set [1] has as its system Human immunodeficiency virus 2. The data set is described as follows: Antiviral activity against HIV-2 ROD infected in human MT4 cells assessed as virus-induced cytopathic effect incubated for 5 days by MTT assay. Format: functional, organism-based. As to conditions: Human immunodeficiency virus 2, ROD, MT4, 120 h. In general terms: Cytopathic effects are the visible damage that an infection or toxin causes in cultured cells.

For data set [2], the system named is Human immunodeficiency virus 1. The experiment in a line: Antiviral activity against HIV-1 NL4-3 infected in human MT2 cells assessed as reduction in viral replication. As to conditions: Human immunodeficiency virus 1, NL4-3, MT2. It counts as functional, organism-based.
A short description of data set [3]: Inhibition of Influenza A virus RdRp.
Data set [4] addresses Human immunodeficiency virus type 1 protease (Human immunodeficiency virus 1, UniProt Q72874). The experiment in a line: Inhibition of HIV-1 protease by fluorescence resonance energy transfer analysis.
Data set [5] deals with Structural capsid protein (Human immunodeficiency virus 1, UniProt Q76129). The experiment in a line: Inhibition of HIV-1 NL4-3 monomeric capsid protein.
Structural capsid protein, sequence (Q76129 whole entry): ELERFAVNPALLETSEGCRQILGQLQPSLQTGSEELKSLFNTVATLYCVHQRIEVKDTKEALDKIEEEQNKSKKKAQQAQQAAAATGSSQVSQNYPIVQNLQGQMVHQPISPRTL
In data set [6] the target is T1, Human immunodeficiency virus type 1 integrase (Human immunodeficiency virus 1, UniProt Q7ZJM1). The data set is described as follows: Inhibition of HIV-1 integrase strand transfer activity.
T1 sequence (Q7ZJM1 whole entry): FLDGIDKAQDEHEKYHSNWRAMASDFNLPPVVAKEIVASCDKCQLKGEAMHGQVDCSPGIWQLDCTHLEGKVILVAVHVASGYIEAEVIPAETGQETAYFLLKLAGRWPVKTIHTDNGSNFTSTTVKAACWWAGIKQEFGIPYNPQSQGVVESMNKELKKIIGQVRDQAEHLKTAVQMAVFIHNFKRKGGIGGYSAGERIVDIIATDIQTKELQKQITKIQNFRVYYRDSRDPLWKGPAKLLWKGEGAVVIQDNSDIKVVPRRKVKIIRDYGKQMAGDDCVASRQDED
Data set [7] has as its target T2, Human immunodeficiency virus type 1 reverse transcriptase (Human immunodeficiency virus 1, UniProt Q72547). The data set is described as follows: Inhibition of HIV-1 reverse transcriptase.
Data set [8] deals with T1, Human immunodeficiency virus type 1 integrase. The data set is described as follows: Inhibition of HIV-1 BAL integrase strand transfer activity.
The target is the same in data set [9]. The data set is described as follows: Inhibition of HIV-1 NL4-3 integrase.
Data set [10] in a line: Cmax in human at 20 mg, po. Format: ADME. As to conditions: in vivo.
Data set [11] is described as follows: Half life in human at 40 mg by LC-MS/MS analysis. It counts as ADME. As to conditions: in vivo.
Data set [12] can be described thus: Cmax in human at 40 mg, po. Format: ADME. The settings on record: in vivo.
A short description of data set [13]: Tmax in human at 40 mg, po. It counts as ADME. As to conditions: in vivo.
The nature of data set [14]: Half life in human at 20 mg by LC-MS/MS analysis. Format: ADME. The settings on record: in vivo.
Data set [15] in a line: Tmax in human at 20 mg, po. Format: ADME. As to conditions: in vivo.
Data set [16] relates to Human immunodeficiency virus 1. The data set is described as follows: Antiviral activity against HIV1 subtype A clinical isolate UG275. It counts as functional, organism-based. The settings on record: Human immunodeficiency virus 1, UG275.
Data set [17] relates to Human immunodeficiency virus 1. The data set is described as follows: Antiviral activity against HIV-1. Format: functional, organism-based.
Data set [18] concerns the target T2, Human immunodeficiency virus type 1 reverse transcriptase. The data set is described as follows: Inhibition of wild type HIV-1 reverse transcriptase.
The target is the same in data set [19]. The experiment in a line: Inhibition of HIV-1 NL4-3 reverse transcriptase.

By EC50 is commonly meant the concentration needed to bring the measured effect to its halfway point. On to `C#C[C@]1(CO)C=C[C@@H](n2cc(C)c(=O)[nH]c2=O)O1`, for which the results for the 50% effective concentration (EC50) in [1] and in [2] were 30 nM and 450 nM, respectively.

A word on the IC50: it is the concentration at which inhibition is half-maximal. Read a high IC50 as weaker potency in that assay. As for `C=C(C)[C@@H]1CC[C@]2(NCCN3CCS(=O)(=O)CC3)CC[C@]3(C)[C@H](CC[C@@H]4[C@@]5(C)CC=C(c6ccc(C(=O)O)cc6)C(C)(C)[C@@H]5CC[C@]43C)[C@@H]12` [BMS-955176], the half-inhibitory concentration (IC50) in data set [3] is > 100000 nM; in data set [4] it was > 10000 nM; in data set [5], > 50000 nM; in data set [6] it was > 15000 nM; in [7], > 50000 nM.

In the case of `C[C@H]1CO[C@@H]2Cn3cc(C(=O)NCc4ccc(F)cc4F)c(=O)c(O)c3C(=O)N12` [CABOTEGRAVIR], the IC50 in data set [8] worked out at 0.22 nM; in [9] it was 0.34 nM.

The Cmax is the peak of the concentration-time curve. For orientation: half-life means the time needed for the level to fall by half in the phase considered. A high value points to slow decline. What is called Tmax is the time at which the peak concentration occurs. In the case of `CCC(=O)NS(=O)(=O)c1ccc(NC(=O)Cc2ccc(Br)c(Oc3cc(Cl)cc(C#N)c3)c2F)c(Cl)c1` [ELSULFAVIRINE], the values for the Cmax in data set [10] and in [12] were 7.5 ng/mL and 10.8 ng/mL, respectively. Besides, the half-life is 2.6 h in data set [11] and 1.7 h in [14]. Also, the Tmax was 1.9 h in data set [13] and 1.1 h in data set [15].

For the compound `C=C(C)[C@@H]1CC[C@]2(NCCN3CCS(=O)(=O)CC3)CC[C@]3(C)[C@H](CC[C@@H]4[C@@]5(C)CC=C(C6=CC[C@@](CF)(C(=O)O)CC6)C(C)(C)[C@@H]5CC[C@]43C)[C@@H]12` [FIPRAVIRIMAT], the EC50 in data set [16] amounted to 3.5 nM; in data set [17], 9 nM.

Regarding `Cc1cc(/C=C/C#N)cc(C)c1Nc1ccnc(Nc2ccc(C#N)cc2)n1` [RILPIVIRINE], the IC50 in data set [18] is 0.24 nM; in data set [19], < 2 nM.

The values are drawn from ChEMBL document CHEMBL6083187, “Current status of the small molecule anti-HIV drugs in the pipeline or recently approved” (Bioorg Med Chem, 2024).
